Laboratory results as given in ChEMBL document CHEMBL5321272 (J Med Chem, 2023).
Activity calls are given as the source filed them. The rule behind the calls is not given here.

How the values were obtained:
BaF3 = assay: Antiproliferative activity against mouse BaF3 cells harboring FLT3 D835F mutant assessed as reduction in cell viability incubated for 72 hrs by CellTiter 96 Aqueous One Solution Cell Proliferation Assay; assay type: functional, cell-based
[1] = Half life in ICR mouse at 10 mg/kg, po; assay type: ADME, organism-based; details: in vivo
[2] = target: Receptor-type tyrosine-protein kinase FLT3 (Homo sapiens, UniProt P36888, ITD); assay: Inhibition of FLT3 ITD mutant (unknown origin) by HTRF assay
AMPK alpha2/beta1/gamma1 = AMPK alpha2/beta1/gamma1 (Homo sapiens, UniProt P54619+P54646+Q9Y478); assay: Inhibition of AMPK alpha2beta1gamma1 (unknown origin) by HTRF assay; assay type: protein-complex assay
[3] = target: Mitogen-activated protein kinase kinase kinase 7 (Homo sapiens, UniProt O43318); assay: Inhibition of TAK1 (unknown origin) by HTRF assay
[4] = Selectivity ratio of IC50 for JAK3 (unknown origin) to IC50 for FLT3-ITD mutant (unknown origin)
[5] = Selectivity ratio of IC50 for HCK (unknown origin) to IC50 for FLT3-ITD mutant (unknown origin)
[6] = Selectivity ratio of IC50 for BMX (unknown origin) to IC50 for FLT3-ITD mutant (unknown origin)
[7] = Selectivity ratio of IC50 for BLK (unknown origin) to IC50 for FLT3-ITD mutant (unknown origin)
[8] = Selectivity ratio of IC50 for BTK (unknown origin) to IC50 for FLT3-ITD mutant (unknown origin)
[9] = Selectivity ratio of IC50 for AMPK alpha2beta1gamma1 (unknown origin) to IC50 for FLT3-ITD mutant (unknown origin)
[10] = Selectivity ratio of IC50 for PIM1 (unknown origin) to IC50 for FLT3-ITD mutant (unknown origin)
[11] = Selectivity ratio of IC50 for CDK1 (unknown origin) to IC50 for FLT3-ITD mutant (unknown origin)
[12] = Selectivity ratio of IC50 for TAK1 (unknown origin) to IC50 for FLT3-ITD mutant (unknown origin)
[13] = Selectivity ratio of IC50 for IRAK4 (unknown origin) to IC50 for FLT3-ITD mutant (unknown origin)
[14] = Selectivity ratio of IC50 for PAK1 (unknown origin) to IC50 for FLT3-ITD mutant (unknown origin)
MOLM-13 = assay: Antiproliferative activity against human MOLM-13 cells assessed as reduction in cell viability incubated for 72 hrs by CellTiter 96 Aqueous One Solution Cell Proliferation Assay; assay type: functional, cell-based
MM1.S = assay: Antiproliferative activity against human MM1.S cells assessed as reduction in cell viability incubated for 72 hrs by CellTiter 96 Aqueous One Solution Cell Proliferation Assay; assay type: functional, cell-based
[15] = target: T1, Voltage-gated inwardly rectifying potassium channel KCNH2 (Homo sapiens, UniProt Q12809); assay: Inhibition of hERG expressed in HEK293 cells assessed as inhibition of tail current at 1 to 10 uM by whole cell patch clamp analysis; assay type: toxicity, cell-based; details: hek293, 10 µM, dose 1-10 µM
[16] = target: T1, Voltage-gated inwardly rectifying potassium channel KCNH2; assay: Inhibition of hERG expressed in HEK293 cells assessed as fast channel deactivation at 100 uM by whole cell patch clamp analysis; assay type: toxicity, cell-based; details: hek293, 100 µM
[17] = target: T1, Voltage-gated inwardly rectifying potassium channel KCNH2; assay: Inhibition of hERG expressed in HEK293 cells assessed as inhibition of channel current amplitude at 100 uM by whole cell patch clamp analysis; assay type: toxicity, cell-based; details: hek293, 100 µM
[18] = target: T1, Voltage-gated inwardly rectifying potassium channel KCNH2; assay: Inhibition of hERG expressed in HEK293 cells assessed as inhibition of channel current amplitude by whole cell patch clamp analysis; assay type: toxicity, cell-based
[19] = target: Receptor-type tyrosine-protein kinase FLT3 (Homo sapiens) (UniProt P36888); assay: Inhibition of FLT3 in human MV4-11 cells assessed as inhibition of STAT5 phosphorylation at Tyr694 residue at 20 nM measured after 90 mins by western blot analysis; assay type: cell-based
[20] = target: Receptor-type tyrosine-protein kinase FLT3 (Homo sapiens) (UniProt P36888); assay: Inhibition of FLT3 in human MV4-11 cells assessed as inhibition of ERK phosphorylation at Tyr204 residue at 20 nM measured after 90 mins by western blot analysis; assay type: cell-based
[21] = target: T2, Serine/threonine-protein kinase Chk1 (Homo sapiens) (UniProt O14757); assay: Inhibition of CHK1 in human MV4-11 cells assessed as upregulation of p53 protein expression measured after 90 mins by western blot analysis; assay type: cell-based; details: dose 50-200 nM
T2 sequence (whole entry): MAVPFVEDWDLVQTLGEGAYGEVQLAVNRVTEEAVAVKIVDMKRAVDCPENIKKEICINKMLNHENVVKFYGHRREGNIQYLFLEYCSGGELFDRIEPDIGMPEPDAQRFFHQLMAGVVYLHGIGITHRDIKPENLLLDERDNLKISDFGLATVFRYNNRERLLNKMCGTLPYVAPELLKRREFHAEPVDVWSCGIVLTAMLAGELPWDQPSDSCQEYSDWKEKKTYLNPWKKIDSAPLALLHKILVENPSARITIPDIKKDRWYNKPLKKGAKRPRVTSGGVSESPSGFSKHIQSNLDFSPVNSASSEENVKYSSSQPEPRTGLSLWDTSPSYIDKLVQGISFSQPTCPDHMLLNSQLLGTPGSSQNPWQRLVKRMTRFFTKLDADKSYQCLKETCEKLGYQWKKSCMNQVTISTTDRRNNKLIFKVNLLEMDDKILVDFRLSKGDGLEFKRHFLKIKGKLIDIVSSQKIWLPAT

[22] = target: T2, Serine/threonine-protein kinase Chk1 (Homo sapiens); assay: Inhibition of CHK1 in human MV4-11 cells assessed as upregulation of p21 protein expression measured after 90 mins by western blot analysis; assay type: cell-based; details: dose 50-200 nM
MV4-11 [23] = assay: Antitumor activity against human MV4-11 cells xenografted in nu/nu mouse assessed as inhibition of tumor growth rate at 3 mg/kg, po qd for 22 days; assay type: functional; details: MV4-11, 528 h, time 22 day
MV4-11 [24] = assay: Antitumor activity against human MV4-11 cells xenografted in nu/nu mouse assessed as reduction in tumor weight at 3 mg/kg, po qd for 22 days; assay type: functional, organism-based; details: time 22.0 day
[25] = Toxicity against nu/nu mouse xenografted with human MV4-11 cells assessed as body weight changes at 1 to 3 mg/kg, po qd for 22 days; assay type: organism-based; details: in vivo, 528 h, dose 1-3 mg/kg, time 22 day
[26] = Acute toxicity in ICR mouse assessed as body weight loss at 300 mg/kg, ig and measured for 7 days; assay type: organism-based; details: in vivo, po, 168 h, time 7 day
[27] = Acute toxicity in ICR mouse assessed as morphological changes in heart at 300 mg/kg, ig and measured for 7 days by Hematoxylin-Eosin staining based analysis; assay type: organism-based; details: in vivo, po, 168 h, time 7 day
[28] = Acute toxicity in ICR mouse assessed as morphological changes in spleen at 300 mg/kg, ig and measured for 7 days by Hematoxylin-Eosin staining based analysis; assay type: organism-based; details: in vivo, po, 168 h, time 7 day
[29] = target: T3, Serine/threonine-protein kinase Chk1 (Homo sapiens, UniProt O14757)
T3 sequence (O14757 whole entry): T2 sequence (whole entry)
Description: Inhibition of CHK1 (unknown origin) using peptide substrate S1 and ATP as substrate incubated for 1 hr by HTRF assay

MV4-11 [30] = assay: cells; details: Homo sapiens, MV4-11, 72 h
Description: Antiproliferative activity against human MV4-11 cells assessed as reduction in cell viability incubated for 72 hrs by CellTiter 96 Aqueous One Solution Cell Proliferation Assay

T1 sequence (Q12809 whole entry): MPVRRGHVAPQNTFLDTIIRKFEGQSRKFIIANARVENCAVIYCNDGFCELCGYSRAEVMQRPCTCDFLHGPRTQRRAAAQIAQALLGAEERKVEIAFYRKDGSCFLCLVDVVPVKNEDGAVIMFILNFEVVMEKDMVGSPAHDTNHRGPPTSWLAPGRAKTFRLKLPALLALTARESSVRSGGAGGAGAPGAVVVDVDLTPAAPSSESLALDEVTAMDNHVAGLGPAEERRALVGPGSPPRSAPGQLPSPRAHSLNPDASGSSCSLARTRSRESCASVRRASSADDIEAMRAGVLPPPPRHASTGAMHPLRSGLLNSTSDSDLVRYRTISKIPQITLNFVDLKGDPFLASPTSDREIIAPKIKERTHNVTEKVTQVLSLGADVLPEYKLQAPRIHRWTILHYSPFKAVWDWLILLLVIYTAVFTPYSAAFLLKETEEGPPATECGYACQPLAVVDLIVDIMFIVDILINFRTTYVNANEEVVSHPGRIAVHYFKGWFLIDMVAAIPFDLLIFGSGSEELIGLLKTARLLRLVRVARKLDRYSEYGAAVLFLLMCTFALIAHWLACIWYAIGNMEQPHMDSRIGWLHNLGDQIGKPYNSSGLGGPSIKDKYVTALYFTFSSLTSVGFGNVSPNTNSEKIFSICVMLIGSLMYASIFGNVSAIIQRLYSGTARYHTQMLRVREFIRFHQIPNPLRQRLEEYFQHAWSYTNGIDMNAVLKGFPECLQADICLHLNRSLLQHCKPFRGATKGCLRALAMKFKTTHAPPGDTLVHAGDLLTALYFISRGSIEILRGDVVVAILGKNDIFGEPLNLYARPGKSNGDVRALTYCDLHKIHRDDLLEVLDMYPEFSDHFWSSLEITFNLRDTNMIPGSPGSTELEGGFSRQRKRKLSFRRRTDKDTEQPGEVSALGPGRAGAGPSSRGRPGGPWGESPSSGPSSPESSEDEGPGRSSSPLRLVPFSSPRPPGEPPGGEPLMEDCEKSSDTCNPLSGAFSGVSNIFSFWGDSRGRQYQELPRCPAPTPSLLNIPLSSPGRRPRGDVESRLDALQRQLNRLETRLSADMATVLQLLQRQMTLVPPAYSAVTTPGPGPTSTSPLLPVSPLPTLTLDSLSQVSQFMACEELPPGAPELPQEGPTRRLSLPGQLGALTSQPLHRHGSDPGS
Chain of Receptor-type tyrosine-protein kinase FLT3 (Homo sapiens) (P36888 whole entry): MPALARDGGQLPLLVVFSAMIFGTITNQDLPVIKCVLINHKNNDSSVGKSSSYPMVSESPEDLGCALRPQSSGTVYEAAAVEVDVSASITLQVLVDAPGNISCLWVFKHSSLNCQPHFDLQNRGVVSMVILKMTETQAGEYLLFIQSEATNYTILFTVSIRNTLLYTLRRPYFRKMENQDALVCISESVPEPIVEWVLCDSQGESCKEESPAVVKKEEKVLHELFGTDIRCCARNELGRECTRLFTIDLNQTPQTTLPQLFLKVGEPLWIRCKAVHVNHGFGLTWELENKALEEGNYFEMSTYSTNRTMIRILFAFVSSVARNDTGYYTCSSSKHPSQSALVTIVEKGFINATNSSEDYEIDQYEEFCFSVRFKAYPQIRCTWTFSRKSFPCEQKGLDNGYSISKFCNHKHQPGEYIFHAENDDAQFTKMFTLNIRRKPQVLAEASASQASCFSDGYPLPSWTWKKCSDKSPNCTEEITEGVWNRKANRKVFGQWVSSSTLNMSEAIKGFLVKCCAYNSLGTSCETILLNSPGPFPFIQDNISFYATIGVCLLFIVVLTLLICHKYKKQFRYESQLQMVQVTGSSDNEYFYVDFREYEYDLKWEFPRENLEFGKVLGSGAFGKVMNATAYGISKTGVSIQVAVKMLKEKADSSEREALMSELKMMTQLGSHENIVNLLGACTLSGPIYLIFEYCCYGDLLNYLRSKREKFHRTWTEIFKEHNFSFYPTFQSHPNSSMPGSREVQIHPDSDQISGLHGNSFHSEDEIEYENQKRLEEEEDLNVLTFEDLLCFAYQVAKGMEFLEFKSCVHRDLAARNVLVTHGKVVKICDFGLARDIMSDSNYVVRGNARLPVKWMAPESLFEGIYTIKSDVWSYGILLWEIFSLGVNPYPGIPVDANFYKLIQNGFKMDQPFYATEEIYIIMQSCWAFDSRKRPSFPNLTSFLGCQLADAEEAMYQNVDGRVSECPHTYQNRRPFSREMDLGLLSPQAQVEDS
Chain of Receptor-type tyrosine-protein kinase FLT3 (P36888 whole entry, looked up, change not shown): as the sequence (P36888 whole entry) above
Chain of AMPK alpha2/beta1/gamma1 (P54646 whole entry): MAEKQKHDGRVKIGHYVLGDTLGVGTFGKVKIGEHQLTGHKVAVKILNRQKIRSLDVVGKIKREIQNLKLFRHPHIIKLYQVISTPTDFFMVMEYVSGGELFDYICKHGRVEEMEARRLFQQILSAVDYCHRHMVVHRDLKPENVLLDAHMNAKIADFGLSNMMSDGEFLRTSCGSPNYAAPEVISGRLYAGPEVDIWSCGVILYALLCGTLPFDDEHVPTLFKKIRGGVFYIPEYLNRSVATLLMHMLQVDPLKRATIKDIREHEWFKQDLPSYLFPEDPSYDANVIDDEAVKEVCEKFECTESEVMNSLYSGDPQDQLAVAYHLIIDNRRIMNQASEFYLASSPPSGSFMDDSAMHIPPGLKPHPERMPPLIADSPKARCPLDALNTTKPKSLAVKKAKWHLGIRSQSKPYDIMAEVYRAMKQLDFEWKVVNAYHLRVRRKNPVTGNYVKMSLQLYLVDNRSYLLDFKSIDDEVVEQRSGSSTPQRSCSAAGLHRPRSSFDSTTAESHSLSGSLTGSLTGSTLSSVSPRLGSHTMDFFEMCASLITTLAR
Chain of AMPK alpha2/beta1/gamma1 (P54619 whole entry): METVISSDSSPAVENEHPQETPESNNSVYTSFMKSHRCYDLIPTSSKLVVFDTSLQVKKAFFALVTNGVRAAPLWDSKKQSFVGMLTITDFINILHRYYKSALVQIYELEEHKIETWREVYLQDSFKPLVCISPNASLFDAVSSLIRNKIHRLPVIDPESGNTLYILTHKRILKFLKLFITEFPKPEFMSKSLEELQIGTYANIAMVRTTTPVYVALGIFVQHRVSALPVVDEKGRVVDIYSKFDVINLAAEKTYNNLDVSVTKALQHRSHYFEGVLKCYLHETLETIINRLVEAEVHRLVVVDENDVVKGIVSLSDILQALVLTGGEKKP
Chain of AMPK alpha2/beta1/gamma1 (Q9Y478 whole entry): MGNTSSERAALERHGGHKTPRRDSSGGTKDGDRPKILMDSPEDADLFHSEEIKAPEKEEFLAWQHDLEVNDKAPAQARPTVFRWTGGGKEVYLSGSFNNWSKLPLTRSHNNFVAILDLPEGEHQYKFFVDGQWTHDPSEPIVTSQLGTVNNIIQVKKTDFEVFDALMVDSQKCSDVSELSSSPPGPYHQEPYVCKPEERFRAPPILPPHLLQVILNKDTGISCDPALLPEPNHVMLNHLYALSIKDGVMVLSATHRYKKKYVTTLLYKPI
Chain of Mitogen-activated protein kinase kinase kinase 7 (O43318 whole entry): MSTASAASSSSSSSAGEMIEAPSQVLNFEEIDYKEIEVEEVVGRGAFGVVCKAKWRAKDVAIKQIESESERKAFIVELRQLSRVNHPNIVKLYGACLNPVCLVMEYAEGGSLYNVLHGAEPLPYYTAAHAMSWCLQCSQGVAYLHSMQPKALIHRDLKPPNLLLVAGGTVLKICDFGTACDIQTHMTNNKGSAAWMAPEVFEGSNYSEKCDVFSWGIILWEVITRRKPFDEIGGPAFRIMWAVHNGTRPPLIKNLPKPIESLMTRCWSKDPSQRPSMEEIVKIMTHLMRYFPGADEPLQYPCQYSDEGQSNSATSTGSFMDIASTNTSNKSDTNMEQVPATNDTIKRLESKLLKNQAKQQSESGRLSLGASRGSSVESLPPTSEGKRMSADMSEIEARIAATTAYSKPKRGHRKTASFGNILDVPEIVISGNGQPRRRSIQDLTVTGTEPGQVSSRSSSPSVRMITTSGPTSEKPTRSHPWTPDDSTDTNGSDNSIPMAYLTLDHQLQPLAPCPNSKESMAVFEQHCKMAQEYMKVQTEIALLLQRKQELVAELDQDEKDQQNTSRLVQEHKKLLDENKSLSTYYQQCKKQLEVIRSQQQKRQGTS

Which Activity (BaF3) does the source give for `CC(C)(O)CC(=O)N1CCc2cc(Nc3ncc(C(F)(F)F)c(N[C@H]4CC[C@@H](N)CC4)n3)ccc2C1` here?
Its Activity is “Active”.

What about the half-life [1] of the same molecule?
The half-life was 5.6 h.

What about the IC50 [2] of the same molecule?
Its IC50 is under 10 nM.

What about the IC50 (AMPK alpha2/beta1/gamma1) of the same molecule?
Its IC50 is 18.4 nM.

What about the IC50 [3] of the same molecule?
The IC50 was 64.3 nM.

What about the Ratio IC50 [4] of the same molecule?
Its Ratio IC50 is over 100.

What about the Ratio IC50 [5] of the same molecule?
The Ratio IC50 was over 100.

What about the Ratio IC50 [6] of the same molecule?
Its Ratio IC50 is over 100.

What about the Ratio IC50 [7] of the same molecule?
The Ratio IC50 was over 100.

And the Ratio IC50 [8]?
The Ratio IC50 was over 100.

And the Ratio IC50 [9]?
Its Ratio IC50 is over 100.

What about the Ratio IC50 [10] of the same molecule?
The Ratio IC50 was over 100.

And the Ratio IC50 [11]?
The Ratio IC50 was over 100.

What about the Ratio IC50 [12] of the same molecule?
Its Ratio IC50 is over 100.

What about the Ratio IC50 [13] of the same molecule?
Its Ratio IC50 is over 100.

And the Ratio IC50 [14]?
The Ratio IC50 was over 100.

What about the Activity (MOLM-13) of the same molecule?
The Activity was “Active”.

And the Activity (MM1.S)?
The Activity was “inactive”.

What about the “inhibition (INH)” value [15] of the same molecule?
Its value is “Not Active”.

And the “inhibition (INH)” value [16]?
The value was “Active”.

And the “inhibition (INH)” value [17]?
Its value is “Active”.

And the IC50 [18]?
Its IC50 is 58400 nM.

What about the inhibition [19] of the same molecule?
The inhibition was 100%.

What about the inhibition [20] of the same molecule?
Its inhibition is 100%.

And the inhibition [21]?
The inhibition was “Dose-Dependent Effect”.

And the inhibition [22]?
The inhibition was “Dose-Dependent Effect”.

What about the inhibition in vivo at 3 mg/kg (MV4-11 [23]) of the same molecule?
Its inhibition in vivo at 3 mg/kg is 52.8%.

And the Activity (MV4-11 [24])?
The Activity was “Active”.

What about the Activity [25] of the same molecule?
Its Activity is “Non-Toxic”.

And the Activity [26]?
The Activity was “Non-Toxic”.

And the Activity [27]?
Its Activity is “Non-Toxic”.

What about the Activity [28] of the same molecule?
Its Activity is “Non-Toxic”.

And the IC50 [29]?
The IC50 was 9.8 nM.

And the IC50 (MV4-11 [30])?
The IC50 was 0.21 nM.
